In patent US20240124412A1, “IKAROS ZINC FINGER FAMILY DEGRADERS AND USES THEREOF” (Gilead Sciences, Inc., priority 2021, published 2024) one finds Dmax and DC50 data, which are given here for 18 compounds.

One test deals with T1, IKZF1 (Homo sapiens, UniProt Q13422+Q96SW2).
T1 construct: expressed in transfected cells
The experiment in a line: HiBiT protein tagging assay, in vitro IKZF1 degradation (HEK293). Format: cell-based. Particulars: HEK293, 18-24 hr incubation, normalized to DMSO control; for Dmax: read-out: IKZF1 Dmax (maximum degradation at the highest concentration tested); for DC50: read-out: IKZF1 EC50. The procedure: (§1) In vitro degradation of IKZF1 and IKZF2 was measured using HiBiT protein tagging and detection technology (Promega).
(§2) HiBiT technology (Promega) was used to develop the quantitative assays to measure the cellular IKZFs level by tagging an 11 amino acid HiBit peptides VSGWRLFKKIS (SEQ ID NO:1) to the protein of interest. Reporter plasmids were generated by fusing a linker sequence (GSSGGSSG; SEQ ID NO:2) followed by the HiBiT tag at the C terminus of IKZF1 and IKZF2. The fusion fragments were subsequently cloned into pcDNA5 pcDNA™5/FRT/TO plasmids (Thermo Fisher, cat #V652020) downstream of the Tetracycline operator. The resulting plasmids were co-transfected with pOG44 Flp-Recombinase Expression Vector (Thermo Fisher, cat #V600520) into Flp-In™ T-REx HEK293 line (Thermo Fisher, cat #R78077) and a stable cell pool was selected by adding 100 μg/ml of Hygromycin (Thermo Fisher, cat #10687010). The reporter cell enabled Tet-On inducible reporter expression from a single copy of the integrated gene.
(§3) On Day 1, Cells were grown to ˜80% confluency in TC medium (DMEM Glutamax (Gibco10569), 10% Tet free FBS (Takara 631106), and PenStrep Glutamin (Gibco 10378)) in tissue culture flasks. Doxycycline was then added to a final concentration of 1 μg/ml to induce reporter expression at 37° C. overnight.
(§4) On Day 2, 125 nL of serially-diluted solution of testing compounds were dispensed into 384-well white solid assay plates via ECHO acoustic liquid handler. Cells were lifted by 0.25% Trypsin (Gibco 25200) then pelleted by centrifugation (Beckman Avanti J-E) at 500×g for 5 min. Cell pellets were resuspended in TC medium at the concentration of 3e5/mL and 25 μL of cell suspension were added into each well of compound-spotted plates. The plates were returned to a 37° C. incubator overnight (18-24 hr).
(§5) On Day 3, assay plates were removed from the TC incubator and 25 μL of Nano-Glo lytic detection system (Promega, cat #N3030) was added to each well. Plates were incubated at r.t. for 3 min with shaking, and luminescence was read using an Envision reader (Perkin Elmer).
(§6) All raw data was normalized to DMSO control (final concentration: 0.5%) wells as POC and plotted out for EC50 and Dmax (Maximum degradation at the highest concentration tested in the assay).
Background: With HiBiT, luminescence reflects the tagged protein that the partner subunit can reach.

A further test concerns the target T2, IKZF2 (Homo sapiens, UniProt Q96SW2+Q9UKS7).
T2 construct: expressed in transfected cells
Kind of test: HiBiT protein tagging assay, in vitro IKZF2 degradation (HEK293). Format: cell-based. Particulars: HEK293, 18-24 hr incubation, normalized to DMSO control; for Dmax: HEK293, HiBiT assay, read-out: IKZF2 Dmax (maximum degradation at the highest concentration tested); for DC50: HiBiT assay, read-out: IKZF2 EC50. The procedure: as §1, §2, §3, §4, §5, §6

Each structure is given as a SMILES string.

T2 sequence (Q9UKS7 1-500 isoform Q9UKS7-2): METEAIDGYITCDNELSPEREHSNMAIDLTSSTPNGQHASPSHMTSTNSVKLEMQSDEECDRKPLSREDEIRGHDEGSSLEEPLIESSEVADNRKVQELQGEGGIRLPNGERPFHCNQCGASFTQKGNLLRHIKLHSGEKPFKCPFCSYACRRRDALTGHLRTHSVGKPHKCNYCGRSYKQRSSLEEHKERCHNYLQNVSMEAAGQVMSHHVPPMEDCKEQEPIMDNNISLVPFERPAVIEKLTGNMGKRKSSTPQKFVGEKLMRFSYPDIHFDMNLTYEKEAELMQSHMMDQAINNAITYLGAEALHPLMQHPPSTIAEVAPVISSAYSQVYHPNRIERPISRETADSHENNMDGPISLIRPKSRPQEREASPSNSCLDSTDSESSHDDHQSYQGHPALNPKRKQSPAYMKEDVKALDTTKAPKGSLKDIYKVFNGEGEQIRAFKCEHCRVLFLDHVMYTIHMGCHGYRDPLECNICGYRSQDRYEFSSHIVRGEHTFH
T2 sequence (Q96SW2 whole entry): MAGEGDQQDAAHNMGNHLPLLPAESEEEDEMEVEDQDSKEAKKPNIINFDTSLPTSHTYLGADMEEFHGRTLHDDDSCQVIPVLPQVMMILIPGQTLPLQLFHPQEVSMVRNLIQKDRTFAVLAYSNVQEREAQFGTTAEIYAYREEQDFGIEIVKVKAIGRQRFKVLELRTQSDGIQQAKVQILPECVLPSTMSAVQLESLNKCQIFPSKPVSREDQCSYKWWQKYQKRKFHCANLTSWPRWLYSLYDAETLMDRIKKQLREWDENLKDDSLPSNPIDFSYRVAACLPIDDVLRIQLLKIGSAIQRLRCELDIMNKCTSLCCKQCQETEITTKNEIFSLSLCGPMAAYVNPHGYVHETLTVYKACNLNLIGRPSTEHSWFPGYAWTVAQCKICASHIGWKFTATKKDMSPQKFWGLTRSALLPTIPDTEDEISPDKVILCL
T2 sequence (Q16531 whole entry partner): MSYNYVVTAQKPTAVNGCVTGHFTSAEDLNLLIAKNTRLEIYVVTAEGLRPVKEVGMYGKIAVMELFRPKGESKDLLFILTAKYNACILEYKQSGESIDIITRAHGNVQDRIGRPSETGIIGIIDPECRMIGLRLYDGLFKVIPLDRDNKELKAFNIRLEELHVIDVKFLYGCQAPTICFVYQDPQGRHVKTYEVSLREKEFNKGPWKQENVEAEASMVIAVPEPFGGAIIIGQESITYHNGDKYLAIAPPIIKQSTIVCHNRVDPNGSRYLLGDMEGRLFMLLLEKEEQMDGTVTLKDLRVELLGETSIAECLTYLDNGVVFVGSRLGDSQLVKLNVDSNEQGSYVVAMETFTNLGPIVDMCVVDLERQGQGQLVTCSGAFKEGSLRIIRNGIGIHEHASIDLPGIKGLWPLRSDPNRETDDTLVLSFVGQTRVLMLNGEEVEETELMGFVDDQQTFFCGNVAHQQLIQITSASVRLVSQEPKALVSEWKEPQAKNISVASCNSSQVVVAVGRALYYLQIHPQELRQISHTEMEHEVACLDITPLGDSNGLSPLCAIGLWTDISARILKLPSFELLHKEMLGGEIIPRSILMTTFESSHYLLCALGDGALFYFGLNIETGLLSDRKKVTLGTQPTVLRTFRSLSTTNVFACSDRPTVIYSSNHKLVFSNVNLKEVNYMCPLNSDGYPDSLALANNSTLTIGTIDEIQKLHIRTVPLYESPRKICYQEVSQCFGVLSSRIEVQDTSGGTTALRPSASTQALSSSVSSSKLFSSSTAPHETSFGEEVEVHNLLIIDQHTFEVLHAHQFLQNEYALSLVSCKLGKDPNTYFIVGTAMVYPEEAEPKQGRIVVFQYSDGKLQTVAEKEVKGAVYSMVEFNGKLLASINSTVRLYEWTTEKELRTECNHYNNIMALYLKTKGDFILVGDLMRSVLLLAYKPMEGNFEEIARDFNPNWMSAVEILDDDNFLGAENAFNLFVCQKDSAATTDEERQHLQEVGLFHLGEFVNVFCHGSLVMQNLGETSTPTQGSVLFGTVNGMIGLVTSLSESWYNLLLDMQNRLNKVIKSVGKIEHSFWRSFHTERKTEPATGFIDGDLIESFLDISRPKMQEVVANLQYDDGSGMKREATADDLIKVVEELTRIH
T1 sequence (Q13422 whole entry): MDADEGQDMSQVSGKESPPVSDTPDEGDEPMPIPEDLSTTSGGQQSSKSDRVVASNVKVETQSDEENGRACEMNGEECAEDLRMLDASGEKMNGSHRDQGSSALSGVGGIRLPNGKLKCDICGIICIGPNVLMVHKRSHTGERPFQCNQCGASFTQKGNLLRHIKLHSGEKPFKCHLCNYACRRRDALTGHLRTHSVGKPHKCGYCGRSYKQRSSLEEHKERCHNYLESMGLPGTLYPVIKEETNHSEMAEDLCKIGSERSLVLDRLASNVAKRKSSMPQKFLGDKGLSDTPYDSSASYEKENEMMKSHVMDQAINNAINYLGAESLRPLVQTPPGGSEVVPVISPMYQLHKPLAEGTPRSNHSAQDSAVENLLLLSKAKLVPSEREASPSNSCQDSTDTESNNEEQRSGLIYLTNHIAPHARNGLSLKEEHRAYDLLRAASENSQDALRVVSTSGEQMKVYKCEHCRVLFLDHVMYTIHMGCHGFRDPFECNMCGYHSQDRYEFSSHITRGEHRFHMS
T1 sequence (Q96SW2 whole entry): as the sequence (Q96SW2 whole entry) above
T1 sequence (Q16531 whole entry partner): as the sequence (Q16531 whole entry partner) above

Consider `O=C1CCC(N2Cc3cc(CN[C@H]4CCCN(Cc5ccccc5)C4)ccc3C2=O)C(=O)N1` (stereo partly drawn) [Example 21, 3-(5-((((S)-1-benzylpiperidin-3-yl)amino)methyl)-1-oxoisoindolin-2-yl)piperidine-2,6-dione], for which, at IKZF1, the Dmax was found to be 79% and the DC50 was determined as 0.056 µM. Besides, on IKZF2, the Dmax is 72% and the DC50 is 0.261 µM.
For `O=C1CCC(N2Cc3cc(CNCC4CCCc5ccccc54)ccc3C2=O)C(=O)N1` (centres unmarked) [Example 22, 3-(1-oxo-5-((((1,2,3,4-tetrahydronaphthalen-1-yl)methyl)amino)methyl)isoindolin-2-yl)piperidine-2,6-dione] the same measures were 78%, 0.025 µM, 36% and 0.11 µM.
For `O=C1CCC(N2Cc3cc(CNCC4CCc5ccccc5C4)ccc3C2=O)C(=O)N1` (centres unmarked) [Example 23, 3-(1-oxo-5-((((1,2,3,4-tetrahydronaphthalen-2-yl)methyl)amino)methyl)isoindolin-2-yl)piperidine-2,6-dione], on IKZF1, the Dmax was 86% and the DC50 was found to be 0.036 µM. Also, at IKZF2, the Dmax was determined as 49% and the DC50 came out at 0.21 µM.
On the same counts, the results for `O=C1CCC(N2Cc3cc(CN[C@@H]4CCCN(C(=O)c5ccccc5)C4)ccc3C2=O)C(=O)N1` (stereo partly drawn) [Example 24, 3-(5-((((R)-1-benzoylpiperidin-3-yl)amino)methyl)-1-oxoisoindolin-2-yl)piperidine-2,6-dione] are 36%, 0.871 µM, 62% and 2 µM.
As for `O=C1CCC(N2Cc3cc(CNC4Cc5ccccc5N(Cc5ccccc5)C4)ccc3C2=O)C(=O)N1` (centres unmarked) [Example 25, 3-(5-(((1-benzyl-1,2,3,4-tetrahydroquinolin-3-yl)amino)methyl)-1-oxoisoindolin-2-yl)piperidine-2,6-dione], at IKZF1, the Dmax came to 38% and the DC50 worked out at 0.084 µM. Further, on IKZF2, the Dmax turned out to be 39% and the DC50 came to 1.8 µM.
For `O=C1CCC(N2Cc3cc(CN[C@@H]4CCCN(Cc5ccccc5Cl)C4)ccc3C2=O)C(=O)N1` (stereo partly drawn) [Example 26, 3-(5-((((R)-1-(2-chlorobenzyl)piperidin-3-yl)amino)methyl)-1-oxoisoindolin-2-yl)piperidine-2,6-dione], at IKZF1, the Dmax turned out to be 97% and the DC50 is 0.001 µM. For the same compound, at IKZF2, the Dmax came out at 97% and the DC50 came to 0.007 µM.
Regarding `C[C@@H](c1ccccc1)N1CCC[C@@H](NCc2ccc3c(c2)CN(C2CCC(=O)NC2=O)C3=O)C1` (stereo partly drawn) [Example 27, 3-(1-oxo-5-((((R)-1-((S)-1-phenylethyl)piperidin-3-yl)amino)methyl)isoindolin-2-yl)piperidine-2,6-dione], at IKZF1, the Dmax is 94% and the DC50 worked out at 0.009 µM. Besides, at IKZF2, the Dmax worked out at 93% and the DC50 amounted to 0.041 µM.
For the compound `C[C@H](c1ccccc1)N1CCC[C@@H](NCc2ccc3c(c2)CN(C2CCC(=O)NC2=O)C3=O)C1` (stereo partly drawn) [Example 28, 3-(1-oxo-5-((((R)-1-((R)-1-phenylethyl)piperidin-3-yl)amino)methyl)isoindolin-2-yl)piperidine-2,6-dione], at IKZF1, the Dmax was 94% and the DC50 turned out to be 0.005 µM. On IKZF2, the Dmax is 93% and the DC50 was found to be 0.029 µM.
On the same counts, the results for `O=C1CCC(N2Cc3cc(CN[C@@H]4CCCN(CCc5ccccc5)C4)ccc3C2=O)C(=O)N1` (stereo partly drawn) [Example 29, 3-(1-oxo-5-((((R)-1-phenethylpiperidin-3-yl)amino)methyl)isoindolin-2-yl)piperidine-2,6-dione] are 58%, 0.102 µM, 20% and 0.665 µM.
Take `O=C1CCC(N2Cc3cc(CN[C@@H]4CCCN(c5ccccc5)C4)ccc3C2=O)C(=O)N1` (stereo partly drawn) [Example 30, 3-(1-oxo-5-((((R)-1-phenylpiperidin-3-yl)amino)methyl)isoindolin-2-yl)piperidine-2,6-dione]: on IKZF1, the Dmax was found to be 44% and the DC50 worked out at 0.09 µM. In addition, at IKZF2, the Dmax was 36% and the DC50 came out at 0.208 µM.
On the same counts, the results for `O=C1CCC(N2Cc3cc(CN[C@H]4CC[C@@H](c5ccccc5)CC4)ccc3C2=O)C(=O)N1` (stereo partly drawn) [Example 31, 3-(1-oxo-5-((((1,4-cis)-4-phenylcyclohexyl)amino)methyl)isoindolin-2-yl)piperidine-2,6-dione] are 97%, 0.003 µM, 83% and 0.04 µM.
In the case of `O=C1CCC(N2Cc3cc(CN[C@H]4CC[C@H](c5ccccc5)CC4)ccc3C2=O)C(=O)N1` (stereo partly drawn) [Example 32, 3-(1-oxo-5-((((1,4-trans)-4-phenylcyclohexyl)amino)methyl)isoindolin-2-yl)piperidine-2,6-dione], on IKZF1, the Dmax is 48% and the DC50 was 0.054 µM. At IKZF2, the Dmax was determined as 85% and the DC50 is 0.071 µM.
`O=C1CCC(N2Cc3cc(CNCc4ccccc4)ccc3C2=O)C(=O)N1` (centres unmarked) [Example 33, 3-(5-((benzylamino)methyl)-1-oxoisoindolin-2-yl)piperidine-2,6-dione]: on IKZF1, the Dmax was determined as 75% and the DC50 was 0.035 µM. Also, at IKZF2, the Dmax stood at 27% and the DC50 is 0.264 µM.
As to `O=C1CCC(N2Cc3cc(CN[C@@H]4CCCC[C@@H]4CO)ccc3C2=O)C(=O)N1` (stereo partly drawn) [Example 34, 3-(5-((((1R,2S)-2-(hydroxymethyl)cyclohexyl)amino)methyl)-1-oxoisoindolin-2-yl)piperidine-2,6-dione], the Dmax on IKZF1 was found to be 20%; on IKZF2, 70%. For the same compound, the DC50 on IKZF1 worked out at 0.384 µM; on IKZF2, 0.657 µM.
Regarding `O=C1CCC(N2Cc3cc(CNC4CCN(c5ccccn5)CC4)ccc3C2=O)C(=O)N1` (centres unmarked) [Example 35, 3-(1-oxo-5-(((1-(pyridin-2-yl)piperidin-4-yl)amino)methyl)isoindolin-2-yl)piperidine-2,6-dione], on IKZF1, the Dmax amounted to 85% and the DC50 came out at 0.028 µM. At IKZF2, the Dmax is 88% and the DC50 was 0.111 µM.
For `O=C1CCC(N2Cc3cc(CNC4CCN(c5cccnc5)CC4)ccc3C2=O)C(=O)N1` (centres unmarked) [Example 36, 3-(1-oxo-5-(((1-(pyridin-3-yl)piperidin-4-yl)amino)methyl)isoindolin-2-yl)piperidine-2,6-dione] the same measures were 84%, 0.096 µM, 90% and 0.588 µM.
On to `O=C1CCC(N2Cc3cc(CNC4CCN(c5ccncc5)CC4)ccc3C2=O)C(=O)N1` (centres unmarked) [Example 37, 3-(1-oxo-5-(((1-(pyridin-4-yl)piperidin-4-yl)amino)methyl)isoindolin-2-yl)piperidine-2,6-dione], for which, on IKZF1, the Dmax stood at 56% and the DC50 was determined as 0.667 µM. Moreover, at IKZF2, the Dmax worked out at 76% and the DC50 came to 1 µM.
Turning to `O=C1CCC(N2Cc3cc(CN[C@H]4CCCC[C@@H]4O)ccc3C2=O)C(=O)N1` (stereo partly drawn) [Example 38, 3-(5-((((1S,2S)-2-hydroxycyclohexyl)amino)methyl)-1-oxoisoindolin-2-yl)piperidine-2,6-dione], on IKZF1, the DC50 was over 10 µM. For the same compound, at IKZF2, the Dmax stood at 21% and the DC50 was found to be 3.3 µM.
